# Several values for one entry are separate records, joined by “and”; a condition that tells them apart may be missing. Equal entries are not always repeated.
# Test system: P. falciparum 3D7 growth, pLDH absorbance
# Test: P. falciparum 3D7 growth inhibition, dose response, strain 3D7 (AID 2305)
row,SMILES,IC50
1,Nc1nc(N)c2c(Oc3cccc4ccccc34)cccc2n1,1010 nM
2,COc1ccccc1C1CCN(C2CCC(NC(=O)/C=C/c3cc(F)c(F)cc3F)CC2)CC1 (stereo not given),1600 nM
3,NC(=O)c1ccc(C(=O)Nc2cccc(-c3cccc(-c4nc5ccc(C(F)(F)F)cc5[nH]4)c3)c2)cc1,230 nM
4,Cc1cc(Nc2ccccc2)nc(NCCOc2ccccc2)n1,730 nM
5,Fc1ccc2nc(-c3ccc(-c4ccc(CNCC5CCCO5)cc4)s3)[nH]c2c1 (stereo not given),600 nM
6,Cc1cc(CNC(=O)[C@H](CC2CCCCC2)Nc2ccc(C#N)c3ccccc23)c(C(F)(F)F)o1,1180 nM
7,COc1ccccc1NC(=O)Nc1cccc(-c2cccc(-c3nc4c(C)cccc4[nH]3)c2)c1,100 nM
8,CC(C)N1CCCN(C(=O)C2CCN(c3ccc(C(=O)N4CCCC4)cn3)CC2)CC1,1060 nM
9,CCCC(=O)c1cnc2c(Oc3cc(Cl)ncn3)cccc2c1Nc1ccccc1C,340 nM
10,CN1CCN(CCc2ccc(N=Cc3c(=O)[nH]c4ccc5[nH]cccc5c34)cc2)CC1,330 nM
11,N#Cc1ccc2c(c1)CN(CCC1CCC(NC(=O)c3cc4ccccc4cc3N)CC1)CC2 (stereo not given),1040 nM
12,N#Cc1ccc2c(c1)CN(CCC1CCC(NC(=O)/C=C/c3c[nH]c4ccccc34)CC1)CC2 (stereo not given),990 nM and 900 nM
13,Cc1cc(N2CCCC2)nc(Nc2ccc(NC(=O)c3ccccc3C)cc2)n1,720 nM
14,CN(C)CCC(O)(c1ccc(Br)cc1)c1cccnc1 (stereo not given),830 nM
15,COc1cccc(-c2ccc(C(=O)NC3CCN(Cc4ccc(N(C)C)cc4)CC3)s2)c1,1390 nM
16,CCOc1ccc(C(C)NC(=O)C2COc3ccccc3O2)cc1OCC (stereo not given),900 nM
17,Cc1ncc([N+](=O)[O-])n1CCOC(=O)NC(NCC1COc2ccccc2O1)C(Cl)(Cl)Cl (stereo not given),220 nM
18,Cc1cc2c(cc1C(F)(F)F)N(C(=O)Nc1cc(OCCN(C(C)C)C(C)C)cc(C(F)(F)F)c1)CC2,260 nM
19,c1ccc(C2CCC(N3CCC(N4CCN(c5ccccc5)CC4)CC3)CC2)cc1 (stereo not given),760 nM
20,Cc1ccc(/C=C/C(=O)N2CCC(CCN3CCC(c4c[nH]c5ccccc45)CC3)CC2)cc1C,930 nM
21,O=C(CCC1CCCC1)N(Cc1ccc(-c2ccc(CNCCc3ccccc3)cc2)cc1)C1CCCNC1 (stereo not given),1220 nM
22,Nc1nc(N)c2c(Cl)c(N3CCOCC3)ccc2n1,80 nM
23,COc1ccc(CNC(=O)Nc2cc3cc(-c4ccc(CN(C)C)cc4)ccc3n3c(C)nnc23)cc1,850 nM
24,Cc1cccc2[nH]c(-c3ccc(-c4ccc(NC(=O)N[C@@H]5C[C@H]5c5ccccc5)cc4)cc3)nc12,880 nM
25,CC(C)CNC(=O)c1cncc(-c2ccc(CN3CCC(N4CCCC4)CC3)cc2)c1,690 nM

row,SMILES,IC50
1,Cc1[nH]c2ccccc2c1C1=CCN(CCCCCC23CCCc4cccc(c42)NC3=O)CC1 (stereo not given),250 nM
2,O=C(c1cccs1)N1N=C(c2cccs2)CC1c1cccc([N+](=O)[O-])c1 (stereo not given),820 nM
3,CCN(CC)C(=S)N=Nc1c(O)[nH]c2c(C)cccc12,860 nM
4,COC(=O)c1ccc2[nH]cc(C3CCN(CCC4CCN(C(=O)/C=C/c5ccc(Cl)c(Cl)c5)CC4)CC3)c2c1,510 nM
5,CC[C@H](C)CNC(=O)c1cccc(-c2cccc(CNCC3CNCCCO3)c2)n1 (stereo not given in full),1080 nM
6,COc1ccc2ncc(F)c(CCN3CCC[C@H](CNCc4ccc5c(n4)NC(=O)CS5)C3)c2n1,970 nM
7,Fc1cccc(COc2ccc(-n3ccc4c(NCCCn5ccnc5)ncnc43)cc2Cl)n1,1030 nM
8,Cc1ccc(C)c(S(=O)(=O)Nc2ccc(Br)cc2C(=O)Nc2cccc(C(F)(F)F)c2)c1,1210 nM
9,Cc1ccc(NC(=O)c2cccc(CN3CCCN(Cc4cccc(O)c4)CC3)c2)cc1,1310 nM
10,COCCN1CCC(CNCC(C)(C)c2nc(-c3ccc(Cl)c(O)c3)c(-c3ccncc3)[nH]2)CC1,750 nM
11,COc1ccc(O)c(CN2CCN(c3cc(C)ccc3C)CC2)c1,1010 nM
12,Cc1cc(Cl)ccc1NC(=O)Nc1ccc2nccc(N3CCN(C)CC3)c2c1,390 nM
13,Cc1cc(N[C@@H](CC(C)C)C(=O)Nc2ccccc2)nc(NCC2CCCCC2)n1,870 nM
14,O=C(/C=C/c1ccc(Cl)c(Cl)c1)NCCCCCN1CCC(NC(=O)Nc2ccccc2F)CC1,840 nM
15,c1ccn2c(Sc3ncnc4sccc34)ncc2c1,660 nM
16,Cc1noc(C)c1CN1CCCN(c2ccc3c(c2)CCN(Cc2ccc(-c4ncc[nH]4)cc2)CC3)CC1,860 nM
17,O=C(CCCCCNC(=O)c1ccc(O)c(-c2ccc(Cl)c(Cl)c2)c1)NCc1cccc2ccccc12,760 nM
18,Cc1c(Cn2ncc(N3C[C@@H](C)N[C@@H](C)C3)c(Cl)c2=O)cccc1NC(=O)Nc1ccc(-c2ccccc2)cc1,600 nM
19,COc1ccc(Nc2nccc(N3CCC(NC(=O)Nc4cc(C)ccc4C)C3)n2)cc1 (stereo not given),900 nM
20,CNC(=O)c1cnc(Nc2ccc(N3CCOCC3)cc2)nc1Nc1cccc(OC)c1,760 nM
21,Cc1ccc(S(=O)(=O)N2CCCN(C(=O)c3cc(-c4ccccc4)n[nH]3)CC2)cc1,80 nM
22,O=C(NCCCCN1CCC(c2ccc3c(c2OCC(O)c2ccc(Cl)cc2)CCCC3)CC1)c1ccc(-c2ccc(C(F)(F)F)cc2)cc1 (stereo not given),1040 nM
23,COc1ccccc1C1CC(c2ccccc2)=NN1C(=O)c1ccco1 (stereo not given),400 nM
24,COc1ccc(C(=O)Nc2ccc3nc(N4CCCCC4)cc(C)c3c2)cc1OC,990 nM
25,CC(CN(C)C)C(=O)Nc1cccc(-c2cccc(-c3nc4ccccc4[nH]3)c2)c1 (stereo not given),1060 nM

row,SMILES,IC50
1,Cc1ccc(C(=O)Nc2cccc(-c3ccc(N4CCN(C)CC4)nn3)c2)cc1[N+](=O)[O-],330 nM
2,O=C(NCc1ccccc1F)c1ccc(N2CCC(NCc3cccc(-n4cccn4)c3)CC2)cc1,1730 nM
3,COc1cc2nc(N3CCC(CNC(=O)c4ccc(-c5ccc(C(=O)N(C)C)cc5O)cc4)CC3)nc(N)c2cc1OC,280 nM
4,COc1ccccc1N1CCN(CCCCNC(=O)c2ccc(NC(=O)c3ccc(C(F)(F)F)cc3)cc2)CC1,300 nM
5,CC(C)CN1C(=O)C(c2ccc(F)c(F)c2)=C(O)C1c1ccccc1 (stereo not given),190 nM
6,CCN(CCCN1CCCCC1)c1nccc(Nc2ccc(Cl)cc2)n1,1190 nM
7,Nc1c(Cl)cc(C(O)CNCCCCCOCCc2ccc3ccccc3n2)cc1Cl (stereo not given),1020 nM
8,NC(=O)c1cccc(CNC(=O)NC[C@H]2CN(Cc3ccc(Cl)c(Cl)c3)CCO2)c1,590 nM
9,CN(C)c1ccc(-c2ccc(C(=O)NC3CCN(Cc4cccc(C(F)(F)F)c4)CC3)s2)cc1,990 nM
10,O=C(Nc1ccc2c(c1)OCO2)c1cc(-c2cccnc2)nc2ccc(Cl)cc12,520 nM
11,CC[C@H]1CN2CC[C@@H]1C[C@H]2[C@H](O)c1cc(-c2ccccc2)nc2ccc(O)cc12,190 nM
12,COc1cccc(C=Cc2nc(=O)c3ccccc3o2)c1OC,60 nM
13,CCc1sc(N2CCC(C)CC2)nc1C(=O)Nc1ccc(F)cc1C(F)(F)F,1090 nM
14,CN(C)CCN(C)Cc1ccc(-c2ccc3c(Nc4ccc(Oc5ccccc5)cc4)ccnc3c2)o1,180 nM
15,CCCCCCN1CCN(Cc2cccc(NC(=O)c3cc4ccccc4s3)c2)CC1,910 nM
16,COc1ccc2nc3cc(Cl)ccc3c(NCCN3CCN(C)CC3)c2c1,120 nM
17,COc1ccc2nccc(N(C)CC3(O)CCN(CCc4ccc5c(c4)OCCO5)CC3)c2n1,140 nM
18,O=C(Nc1cc(Cl)ccc1O)c1cnn2c(C(F)(F)F)cc(-c3cccs3)nc12,860 nM
19,COc1ccc(C=NNc2c3ccccc3nc3ccccc23)c2ccccc12,1130 nM
20,Oc1cc(Nc2ccnc3cc(I)ccc23)ccc1F,740 nM
21,Cc1cccc(Nc2nccc(NCC(O)c3ccc(C(F)(F)F)cc3)n2)c1 (stereo not given),560 nM
22,Nc1c2ccccc2nc2ccc(-c3ccccc3)cc12,140 nM
23,CN(C)c1ccc(-c2nc3ccc(N)cc3[nH]2)cc1,240 nM
24,Cc1cccc2[nH]c(-c3cccc(-c4ccc(NC(=O)C(C)(C)c5ccccn5)cc4)c3)nc12,690 nM
25,CCCn1c(Sc2ccc(C#N)c([N+](=O)[O-])c2)nnc1-c1ccc(Cl)cc1,540 nM

row,SMILES,IC50
1,Cc1cccc(-c2nc3cc(NC(=O)c4ccc([N+](=O)[O-])o4)ccc3o2)c1,880 nM
2,CC(=O)Nc1ccc2[nH]cc(C3CCN(CC4CCC(NC(=O)/C=C/c5ccccc5Cl)CC4)CC3)c2n1 (stereo not given),360 nM
3,Cc1nc(-c2cccc3c(NC(=O)N4CCc5cc6nccc(N7CCN(C)CC7)c6cc54)cccc23)no1,760 nM
4,COc1ccc2c(OC)c(CNCCCCCCNCc3ccc4cc(OC)ccc4c3OC)ccc2c1,920 nM
5,Cc1c(N)ccc2[nH]c(-c3ccc(N)cc3)nc12,1210 nM
6,CC(C)c1ccc(C(NC(=O)C2CCCCC2)c2ccc3cccnc3c2O)cc1 (stereo not given),600 nM
7,CCCCCCCCNCc1c(O)ccc2ccccc12,740 nM
8,Nc1nc2c(ncn2OC[C@H](CO)OCP(=O)(O)O)c(=O)[nH]1,340 nM
9,Cc1[nH]c(C)c(-c2ccc(-c3cccc(C(F)(F)F)c3)nc2)c(=O)c1Br,140 nM
10,CC[C@H]1CN2CCc3c([nH]c4ccccc34)[C@@H]2C[C@@H]1CC1c2cc(OC)c(OC)cc2CCN1C (stereo not given in full),1090 nM
11,CCOc1ccc2nc(C)cc(NN=Cc3ccccc3F)c2c1,740 nM
12,CC(=O)Nc1ccc2[nH]cc(C3CCN(CCC4CCN(C(=O)/C=C/c5ccc(Cl)c(Cl)c5)CC4)CC3)c2n1,520 nM
13,Cc1cccc2[nH]c(=O)c([N+](=O)[O-])c(O)c12,910 nM
14,Cc1nnc(NC(=O)c2cn(-c3ccccc3)nc2-c2ccccc2C)o1,560 nM
15,N#Cc1cccc(Nc2nccc(NCC(O)c3ccc(C(F)(F)F)cc3)n2)c1 (stereo not given),560 nM
16,CC[C@H]1CN2CC[C@H]1C[C@H]2[C@H](O)c1cc(/C=C/c2ccc(F)cc2)nc2ccc(OC)cc12,30 nM
17,Cc1cc2nc(-c3cc(Br)ccc3O)c(-c3cc(Br)ccc3O)nc2cc1C,850 nM
18,COCC(C)n1c(SCC(=O)Nc2cc(C(F)(F)F)ccc2Cl)nc2ccccc2c1=O (stereo not given),130 nM
19,O=C(c1cccc(-c2noc(C(F)(F)F)n2)c1)N1CCN(c2ccncc2)CC1,230 nM
20,CCOc1ccc(Nc2ccc3nonc3c2S(=O)(=O)Nc2ccc(OCC)cc2)cc1,510 nM
21,Cc1cccc(C)c1CNc1cccc(-c2nc(C)c(C)[nH]2)c1,880 nM
22,Cc1ccc(C2(O)C[C@H]3CC[C@@H](C2)N3C)cc1 (stereo not given in full),610 nM
23,COc1cc(C(F)(F)F)cc2[nH]c(CNCCCNc3nc4ccccc4[nH]3)cc12,280 nM
24,Cc1ccc(CN2CCCN(Cc3cccc(NC(=O)c4cc5ccccc5s4)c3)CC2)cc1C,730 nM
25,O=C(/C=C/c1ccc(Cl)c(Cl)c1)N1CCC(CN2CCC(c3c[nH]c4cnccc34)CC2)CC1,220 nM
